From article PMC3575409, “Identification of a Novel Protein-Protein Interaction Motif Mediating Interaction of GPCR-Associated Sorting Proteins with G Protein-Coupled Receptors” (PLoS ONE, 2013)
“Also recorded” adds a separate entry of the source.

What was measured:
[1] = test system: interaction between GASP-1 and GST-fused ADRB1 C-tail; assay: GST-pull down competition, GASP-1 / ADRB1 C-tail; assay type: binding; details: 150 µM peptide
Experimental: (§1) GST-fusion proteins were immobilized on glutathione-coupled Sepharose beads (GE Healthcare) for 1 h at 4°C and incubated with [^35S]-labelled in vitro translated GASP proteins or their truncated or mutated forms in ice-cold binding buffer containing: 20 mM Tris-HCl pH 7.4, 150 mM NaCl, 1 mM EDTA, 1 mM DTT, 10% glycerol and 1% Triton X-100. The mixture was incubated for 1 h at 4°C with gentle rocking. The beads were washed five times with the same ice-cold buffer, resuspended in 30 µl SDS-PAGE sample buffer, incubated 10 min at 65°C, and pelleted for 60 s at 3000 g. The supernatants were then analyzed by SDS-PAGE, the gels were stained with Coomassie blue to visualize GST-fusion proteins, dried and analyzed using a Phosphor-imager (Personal Molecular Imager FX, Biorad) to visualize [^35S]-labelled GASPs. Quantification was performed with the Quantity One software (Biorad). GST-pull down quantification data were analyzed using GraphPad Prism 4.03 (GraphPad Software). Quantifications presented are means of at least three independent experiments.
(§2) GASP peptide or its corresponding scrambled version was incubated with GST-fused proteins and [^35S]-labelled GASPs and the binding was analyzed as described for the GST-pull down assay. […]

[2] = test system: interaction between GASP-7 and GST-fused ADRB1 C-tail; assay: GST-pull down competition, GASP-7 / ADRB1 C-tail; assay type: binding; details: 150 µM peptide
Experimental: as §1, §2

[3] = test system: interaction between GASP-2 and GST-fused ADRB1 C-tail; assay: GST-pull down competition, GASP-2 / ADRB1 C-tail; assay type: binding
Experimental: as §1, §2

[4] = target: T1, binding of full-length CNR2 to the central domain of GASP-1 (Homo sapiens, UniProt P34972); assay: SPR competition, CNR2 / central domain of GASP-1; details: 0.30 µM CNR2, GASP peptide 250 µM, control peptide up to 250 µM
T1 construct: Both ADRB2 and CNR2 full-length receptors were produced in P. pastoris and purified as previously described; implied only by the HisTrap purification; made in house; host or cells: CNR2: Pichia pastoris; GST-GASP-1(380-1073): E. coli BL21
Experimental: (§3) The human ADRB2 and CNR2 receptors were produced using the P. pastoris expression system as previously described, [16]. After methanol-induced receptor expression, cells were washed with PBS pH 7.0 and resuspended in ice-cold buffer A (50 mM Tris-HCl pH 7.4, 500 mM NaCl, 10% glycerol, 5 mM EDTA, 1 mM PMSF, 2 mM DDT). Cells were then lysed with two cycles of 20 s shaking and 20 s cooling on ice using 0.5 mm glass beads in a FastPrep 24 device. Unbroken cells and cell debris were removed by centrifugation (3000 g, 5 min, 4°C) and the membrane fraction from the supernatant was pelleted by ultracentrifugation (100,000 g, 45 min, 4°C). Membranes were resuspended in buffer B (50 mM Tris-HCl pH 7.4, 500 mM NaCl, 10% glycerol, 1 mM PMSF, 2 mM DTT) using a Dounce homogenizer, and then successively washed with urea (buffer B with 4 M urea) and NaOH (buffer B with 10 mM NaOH), and ultracentrifuged (100,000 g, 45 min, 4°C). Finally membranes were resuspended in buffer B and quantified with the bicinchoninic acid (BCA) method (Pierce). […]
(§4) The binding curves were double referenced by (i) subtraction of the signal from the GST captured flow cell from the signal of the flow cell with captured central domain of GASP-1 and (ii) subtraction of the appropriate blank injection from the receptor injections with or without peptide. […] Endpoint responses were read 20 s after injection end. […]

[5] = target: T2, binding of full-length ADRB2 to the central domain of GASP-1 (Homo sapiens, UniProt P07550); assay: SPR competition, ADRB2 / central domain of GASP-1; details: 1.1 µM ADRB2, GASP peptide 250 µM, control peptide up to 250 µM
T2 construct: Both ADRB2 and CNR2 full-length receptors were produced in P. pastoris and purified as previously described; implied only by the HisTrap purification; made in house; host or cells: ADRB2: Pichia pastoris; GST-GASP-1(380-1073): E. coli BL21
Experimental: as §3, §4

T1 sequence (P34972 whole entry, the tested form may be a part): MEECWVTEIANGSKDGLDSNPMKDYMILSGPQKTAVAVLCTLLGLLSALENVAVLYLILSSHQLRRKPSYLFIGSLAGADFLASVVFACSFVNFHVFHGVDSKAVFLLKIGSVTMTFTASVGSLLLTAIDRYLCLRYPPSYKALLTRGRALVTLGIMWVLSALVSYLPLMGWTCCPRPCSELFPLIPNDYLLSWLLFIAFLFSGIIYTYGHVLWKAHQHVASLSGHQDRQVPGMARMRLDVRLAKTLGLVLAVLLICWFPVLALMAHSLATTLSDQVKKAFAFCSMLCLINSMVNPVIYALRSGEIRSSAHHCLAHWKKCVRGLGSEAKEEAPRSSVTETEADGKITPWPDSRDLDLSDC

Sequence | effect on the interaction between GASP-1 and ADRB1 C-tail [1] | effect on the interaction between GASP-7 and ADRB1 C-tail [2] | effect on the interaction between GASP-2 and ADRB1 C-tail ([3]; 150 µM peptide) | effect on the interaction between GASP-2 and ADRB1 C-tail ([3]; dose-effect experiment, peptide 1 to 250 µM (scrambled: highest dose)) | effect on binding of CNR2 to the central domain of GASP-1 [4] | effect on binding of ADRB2 to the central domain of GASP-1 [5]
AVEWIQEVFWEKRKPEEFGIERAS [scrambled peptide, scrambled version of GASP peptide] | did not | did not | did not | did not affect this interaction; also recorded: no significant effect | – | –
RVKQEPRFEEEVIIGAAAAAEKEA [control peptide, control peptide where the conserved SWFW motif was changed to AAAA] | – | – | – | – | only had a minor effect on the interaction | only had a minor effect on the interaction
